Columns and labels:
E. Coli (OD600 1.5) = assay: Antimicrobial kill efficacy test on treated substrate (E. Coli); type: cell-based; settings: 1 hr; for Efficacy test Pass: 20 C.
From the text: The 100000 ppm stock solution is subsequently diluted to the silver metal loading concentrations ranging from 3000 ppm down to 10 ppm, as shown in table 1 (the final usage concentration). The solutions are then applied onto a standard fabric substrate, such as white cotton textile and tested for various characteristics. The substrates, after being treated with the solution, are coated with standardized microbes, such as E. Coli or MRSA and tested for antimicrobial kill efficacy. The treated substrates are subjected to a wash test to determine if the silver metal still remains adhered to the fabric after multiple washes. For high silver metal ppm fabrics, it is easy to determine if the color of the stain fades or washes out over time. For low-ppm, non-stained items, the substrate is subjected to a digestion method to calculate the silver concentration per unit area after a number of washes to determine if the silver is remaining stable or is washing out.

MRSA (Staphylococcus) = assay: Antimicrobial kill efficacy test on treated substrate (MRSA); type: cell-based; settings: white cotton duvet, 60 C.-100 C., 1 hr
[1] = 10 ppm silver metal loading, white cotton fabric
[2] = 20 ppm silver metal loading, white cotton fabric
[3] = 100 ppm silver metal loading, white cotton fabric
[4] = 500 ppm silver metal loading, white cotton fabric
[5] = 1000 ppm silver metal loading, white cotton fabric

[Ag(NH3)2]-oxalate [Example 3]
Efficacy test Pass (E. Coli (OD600 1.5); [1]): No | Efficacy test Pass (E. Coli (OD600 1.5); [2]): Yes | Efficacy test Pass (E. Coli (OD600 1.5); [3]): Yes | Efficacy test Pass (E. Coli (OD600 1.5); [4]): Yes | Efficacy test Pass (E. Coli (OD600 1.5); [5]): Yes

[Ag(NH3)2]-carbonate [Example 1]
Efficacy test Pass? (E. Coli (OD600 1.5); [1]): No | Efficacy test Pass? (E. Coli (OD600 1.5); [2]): Yes | Efficacy test Pass? (E. Coli (OD600 1.5); [3]): Yes | Efficacy test Pass? (E. Coli (OD600 1.5); [4]): Yes | Efficacy test Pass? (E. Coli (OD600 1.5); [5]): Yes

[Ag(NH3)2]-formate [Example 5]
Efficacy test Pass (E. Coli (OD600 1.5); 10 ppm silver metal loading, dark Coolmax polyester fabric): No | Efficacy test Pass (E. Coli (OD600 1.5); 20 ppm silver metal loading, dark Coolmax polyester fabric): Yes | Efficacy test Pass (E. Coli (OD600 1.5); 100 ppm silver metal loading, dark Coolmax polyester fabric): Yes | Efficacy test Pass (E. Coli (OD600 1.5); 500 ppm silver metal loading, dark Coolmax polyester fabric): Yes | Efficacy test Pass (E. Coli (OD600 1.5); 1000 ppm silver metal loading, dark Coolmax polyester fabric): Yes

[Ag(NH3)2]-fluoride [Example 4]
Efficacy test Pass (E. Coli (OD600 1.5); 10 ppm silver metal loading, white Coolmax polyester fabric): No | Efficacy test Pass (E. Coli (OD600 1.5); 20 ppm silver metal loading, white Coolmax polyester fabric): Yes | Efficacy test Pass (E. Coli (OD600 1.5); 100 ppm silver metal loading, white Coolmax polyester fabric): Yes | Efficacy test Pass (E. Coli (OD600 1.5); 500 ppm silver metal loading, white Coolmax polyester fabric): Yes | Efficacy test Pass (E. Coli (OD600 1.5); 1000 ppm silver metal loading, white Coolmax polyester fabric): Yes | Efficacy test Pass (MRSA (Staphylococcus); 10 ppm copper metal loading): Yes | Efficacy test Pass (MRSA (Staphylococcus); 20 ppm copper metal loading): Yes | Efficacy test Pass (MRSA (Staphylococcus); 100 ppm copper metal loading): Yes | Efficacy test Pass (MRSA (Staphylococcus); 500 ppm copper metal loading): Yes | Efficacy test Pass (MRSA (Staphylococcus); 1000 ppm copper metal loading): Yes

[Cu(NH3)4(H2O)n]SO4 [Example 8]
Efficacy test Pass (MRSA (Staphylococcus); 10 ppm zinc metal loading): No | Efficacy test Pass (MRSA (Staphylococcus); 20 ppm zinc metal loading): Yes | Efficacy test Pass (MRSA (Staphylococcus); 100 ppm zinc metal loading): Yes | Efficacy test Pass (MRSA (Staphylococcus); 500 ppm zinc metal loading): Yes | Efficacy test Pass (MRSA (Staphylococcus); 1000 ppm zinc metal loading): Yes

[Ag(NH3)2]-formate [Example 6]
Efficacy test Pass (E. Coli (OD600 1.5); 10 ppm silver metal loading, Substrate = Dark Coolmax polyester fabric / Hand (Example 6: on skin)): No | Efficacy test Pass (E. Coli (OD600 1.5); 20 ppm silver metal loading, Substrate = Dark Coolmax polyester fabric / Hand (Example 6: on skin)): Yes | Efficacy test Pass (E. Coli (OD600 1.5); 100 ppm silver metal loading, Substrate = Dark Coolmax polyester fabric / Hand (Example 6: on skin)): Yes | Efficacy test Pass (E. Coli (OD600 1.5); 500 ppm silver metal loading, Substrate = Dark Coolmax polyester fabric / Hand (Example 6: on skin)): Yes | Efficacy test Pass (E. Coli (OD600 1.5); 1000 ppm silver metal loading, Substrate = Dark Coolmax polyester fabric / Hand (Example 6: on skin)): Yes

Source: patent US20210329924A1, “METAL-BASED ANTIMICROBIAL COMPOSITION AND METHOD OF USING” (Microbonds Inc., priority 2020, published 2021)
